Measured values from patent publication US11047004B2, “Thiolated nucleotide analogues for nucleic acid synthesis” (LIFE TECHNOLOGIES CORPORATION, priority 2014, dated 2021).

Tests used:
[1] = target: calf intestinal phosphatase (CIP) (Bos taurus, UniProt P19111); assay: Phosphatase resistance: calf intestinal phosphatase (CIP) pre-treatment, then polymerase extension read-out; assay type: biochemical; settings: 10 u/μL CIP, 37° C., 20 min, read-out by polymerase incorporation fluorescence (FIG. 4)
calf intestinal phosphatase (CIP), sequence (P19111 20-506 limits assumed): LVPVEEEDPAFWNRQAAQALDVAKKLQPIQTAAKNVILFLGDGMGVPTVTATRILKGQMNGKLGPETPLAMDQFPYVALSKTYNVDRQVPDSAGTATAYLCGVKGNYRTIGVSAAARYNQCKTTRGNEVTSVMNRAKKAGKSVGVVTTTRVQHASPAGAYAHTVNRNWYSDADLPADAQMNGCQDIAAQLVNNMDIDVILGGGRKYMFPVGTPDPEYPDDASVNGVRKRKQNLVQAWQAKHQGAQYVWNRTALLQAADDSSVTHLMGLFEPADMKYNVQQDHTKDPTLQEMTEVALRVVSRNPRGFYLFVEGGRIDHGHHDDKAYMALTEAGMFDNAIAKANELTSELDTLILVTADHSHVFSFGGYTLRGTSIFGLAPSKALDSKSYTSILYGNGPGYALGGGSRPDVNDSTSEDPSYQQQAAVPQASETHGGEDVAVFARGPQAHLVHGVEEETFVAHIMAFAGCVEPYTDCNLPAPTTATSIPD
Procedure: As an example of this resistant, representative results from an exemplary experiment are depicted in FIG. 4. […] Phosphatase-mediated hydrolysis is reflected as a non-increasing level of fluorescence, whereas phosphatase resistance is reflected as an increase in normalized fluorescence intensity.
Two solutions were prepared as follows in 20 mM Tris HCl, pH 7.5, 20 mM NaCl, 10 mM MgCl2: (A) 80 μM of TTP, and (B) 200 μM of γ-S-TTP.
To both solution was added 1.5 μL of 10 u/μL of calf intestinal phosphatase (CIP), and the solutions were incubated at 37° C. for 20 min. The phosphatase was then removed by passing the solutions through a 10,000 molecular weight cut-off ultrafiltration membrane. The resulting solutions were then used for the polymerase extension reactions.
(§1) A solution was prepared in the same buffer as above containing 250 nM of the hairpin oligonucleotide, 16 μM of a short oligonucleotide (5′-CCCCCC-3′, acting as a signal amplifier), and 2 nM of Bst polymerase. Then 50 μL aliquots of this solution were placed in individual wells of a microtiter plate. In separate wells of the same plate were placed 50 μL aliquots of the CIP-treated solutions from above, as well as identical solutions that had not been treated with CIP. The plate was equilibrated at 37° C. in a fluorescence microplate reader, and then the dNTP solutions were mixed with the solutions of polymerase and fluorogenic hairpin oligonucleotide. The polymerase catalyzed incorporation reactions were followed by recording the fluorescence intensity changes using 490 nm for excitation and 525 nm for the emission. When a polymerase reaction occurred, an increase in the fluorescence intensity over time was detected (see FIG. 4). There was no change in fluorescence when no nucleotide incorporation reaction occurred (see FIG. 4).
A treatment of synthetically prepared γ-S-TTP with CIP can be used to remove any traces of contaminating dTTP that may be present in the preparation of γ-S-TTP.

Bst polymerase = Bst polymerase (Geobacillus stearothermophilus, UniProt P52026); assay: Polymerase extension assay with fluorescein-labeled hairpin oligonucleotide (fluorescence increase on incorporation); assay type: biochemical, Bacillus stearothermophilus; settings: 2 nM Bst polymerase, 250 nM hairpin oligonucleotide, 37° C., ex 490 nm / em 525 nm; for polymerase incorporation reaction (fluorescence increase), CIP-treated nucleotide solution: nucleotide pre-treated with CIP
Bst polymerase, sequence (P52026 other isoform, or with tags, fused parts or gaps with the stated changes): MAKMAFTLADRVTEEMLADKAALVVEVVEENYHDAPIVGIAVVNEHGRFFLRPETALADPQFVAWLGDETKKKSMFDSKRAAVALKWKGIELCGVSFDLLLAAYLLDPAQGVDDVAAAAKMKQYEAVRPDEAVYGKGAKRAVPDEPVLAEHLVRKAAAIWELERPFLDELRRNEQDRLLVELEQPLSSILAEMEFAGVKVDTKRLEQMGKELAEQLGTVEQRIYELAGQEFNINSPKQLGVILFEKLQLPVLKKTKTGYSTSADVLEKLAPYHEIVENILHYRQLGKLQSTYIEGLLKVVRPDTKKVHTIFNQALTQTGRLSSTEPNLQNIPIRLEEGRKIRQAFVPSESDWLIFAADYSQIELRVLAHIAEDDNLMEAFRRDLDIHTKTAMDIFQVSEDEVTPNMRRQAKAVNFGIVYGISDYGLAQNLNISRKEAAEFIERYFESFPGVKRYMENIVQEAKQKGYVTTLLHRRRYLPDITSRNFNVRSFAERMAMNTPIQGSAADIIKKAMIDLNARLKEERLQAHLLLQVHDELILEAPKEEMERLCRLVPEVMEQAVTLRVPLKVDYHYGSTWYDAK
Excerpt: For the polymerase extension assays, a fluorescein-labeled oligonucleotide substrate was designed, and used in an assay to detect nucleotide incorporation. The labeled oligonucleotide is a hairpin-type oligonucleotide with a T-fluorescein residue located at the third position from the 3′ end. The 5′ end of the labeled oligonucleotide is a single stranded sequence 3′-AGGGGGG-5′. Thus, the first nucleotide to be inserted by a polymerase onto the 3′ end of the substrate is a TTP. The 5′ and 3′ ends of the hairpin oligonucleotide is shown below. A fluorescein is attached to the T residue, which is underlined and bolded: • TGC 3′ • […] 5′ (SEQ ID NO:83)
Without wishing to be bound by theory, it is postulated that when the third base from the 3′ end is labeled with a fluorphore (in this case the labeled nucleotide is a T), and when the 3′ terminal base is a cytosine or guanosine, then the fluorphore is in a stacked position with the 3′ terminal base, resulting in quenching the fluorescence from the fluorphore. When a thymidine is incorporated at the terminal 3′ end (e.g., via polymerase-mediated nucleotide incorporation), the fluorphore is un-quenched. This assay can be performed with the hairpin molecule described herein, or with two annealed single-strands that mimic the linear ends of this hairpin molecule.
as §1, with “Then 50 μL aliquots of this solution were placed in individual wells of a microtiter plate. In separate wells of the same plate were placed 50 μL aliquots of the CIP-treated solutions from above, as well as identical solutions that had not been treated with CIP.” left out

[2] = free amino acid in solution; cited from earlier work

Row | Structure (SMILES) | pKa α-carboxylic acid [2] | pKa α-amino [2] | other results
1 | Cc1cn([C@H]2C[C@H](O)[C@@H](COP(=O)(O)OP(=O)(O)OP(=O)(O)O)O2)c(=O)[nH]c1=O [TTP, thymidinyl-triphosphate, reference compound] |  |  | resistance to degradation by calf intestinal (alkaline) phosphatase [1]: not reflected; polymerase incorporation reaction (fluorescence increase), CIP-treated nucleotide solution (Bst polymerase): no incorporation reaction takes place
2 | CC(C)[C@H](N)C(=O)O [Valine] | 2.29 |  | 
3 | N[C@@H](CC(=O)O)C(=O)O [Aspartic Acid] |  | 9.82 | 
4 | CC[C@H](C)[C@H](N)C(=O)O [Isoleucine] |  | 9.76 | 
5 | Cc1cn([C@H]2C[C@H](O)[C@@H](COP(=O)(O)OP(=O)(O)OP(O)(O)=S)O2)c(=O)[nH]c1=O [γ-S-TTP, γ-S-thymidinyl-triphosphate] |  |  | resistance to degradation by calf intestinal (alkaline) phosphatase [1]: resistant to the alkaline phosphatase activity; resistance to degradation by calf intestinal (alkaline) phosphatase ([1]; listed as gamma STTP): showed a resistance to phosphatase; polymerase incorporation reaction (fluorescence increase), non-treated nucleotide solution (Bst polymerase; nucleotide not treated with CIP): polymerase reactions can be detected; polymerase incorporation reaction (fluorescence increase), CIP-treated nucleotide solution (Bst polymerase): polymerase reactions can be detected
6 | C[C@H](N)C(=O)O [Alanine] | 2.35 |  | 
7 | N[C@@H](Cc1ccccc1)C(=O)O [Phenylalanine] | 2.58 | 9.24 | 
